Assay results as given in US10604487B2, “Pyridinol derivative or pharmaceutically acceptable salt thereof, and pharmaceutical composition containing same as active ingredient” (Research Cooperation Foundation of Yeungnam University, priority 2016, dated 2020).
Where two headings read alike, the source gives them in different places.

What was measured:
[1] = Cytotoxicity test (MTT), U937; format: cell-based; conditions: human, U937, 48 h; for viability at 48 h, 0.01 µM / viability at 48 h, 0.1 µM / viability at 48 h, 1 µM / viability at 48 h, 10 µM / viability at 48 h, 100 µM: U937 cells (monocytic blood cancer-derived cell line), read-out: Cell viability (% of control); for IC50 at 48 h: U937 cells
Procedure: (§1) The human colorectal cancer cell line HT-29 and the monocytic blood cancer-derived cell line U937 were cultured in a RPMI 1640 medium containing 10% FBS and 1% penicillin/streptomycin (PS) at 37° C. under a condition of 5% CO2, and when the cells used herein were grown to 80% or more, they were subcultured at a ratio of 1:3.
(§2) Each type of cells were cultured in a 96 well plate at a concentration of 1×10^5 cells/cm2, treated with a test compound by concentration in a medium only containing 1% FBS and 1% PS at 37° C. under a condition of 5% CO2 for 48 hours and reacted with 5 mg/mL of a 3-[4,5-dimethylthiazol-2-yl]-2,5-diphenyltetrazolium bromide (MTT) reagent for 4 hours, and then the medium was completely removed, the cells were treated with DMSO, formazan crystals were dissolved for 30 minutes, and then absorbance was measured at 540 nm.

[2] = Cytotoxicity test (MTT), HT-29; format: cell-based; conditions: human, HT-29, 48 h; for viability at 48 h, 0.01 µM / viability at 48 h, 0.1 µM / viability at 48 h, 1 µM / viability at 48 h, 10 µM / viability at 48 h, 100 µM: HT-29 cells (colorectal cancer cell line), read-out: Cell viability (% of control); for IC50 at 48 h: HT-29 cells
Procedure: as §1, §2

[3] = tested on: TNF-α-induced adhesion of monocytes to intestinal epithelial cells; assay: Inhibitory activity against TNF-α-induced adhesion of monocytes (U937) to intestinal epithelial cells (HT-29); format: cell-based, human; conditions: Homo sapiens
Procedure: HT-29 human colorectal cancer-derived epithelial cells and U937 human-derived monocytic cells were cultured in an RPMI 1640 medium containing 10% FBS and 1% penicillin/streptomycin (PS) at 37° C. under a condition of 5% CO2, and when the cells were grown to 80% or more in a culture flask, they were subcultured in a ratio of 1:3 to be used in this test. The HT-29 cells were cultured in a 24-well plate at a concentration of 2×10^5 cells/cm2, and then the medium only containing 1% FBS and 1% PS was pretreated with a test drug for 1 hour. Afterward, BCECF-loaded U937 cells by being treated with 10 μg/mL of BCECF-AM at 37° C. for 30 minutes and 10 ng/mL of TNF-α reacted with the HT-29 cells previously treated with the test drug at 37° C. for 3 hours. After the reaction, the medium was removed, and then the cells were washed with PBS twice to remove U937 cells that were not adhered. In a subsequent step, for cell lysis, 0.1% Triton X-100 (0.1 M Tris) was treated to allow a reaction at room temperature for 30 minutes, and then fluorescence was measured using a Fluostar optima microplate reader (BMG LABTECH, Germany) to quantify the cells (Carvalho et al., 1996; Thapa et al., 2008).

[4] = read-out: IC50 (μM), cytotoxicity
[5] = 1 μM test drug, HT-29/U937 adhesion, 10 ng/mL TNF-α, read-out: Inhibitory activity (%)

IC50 ([3]; HT-29/U937 adhesion, TNF-α-induced, read-out: IC50 (adhesion inhibition)) [µM] | Compound | viability at 48 h, 0.01 µM [1] [%] | viability at 48 h, 0.1 µM [1] [%] | viability at 48 h, 1 µM [1] [%] | viability at 48 h, 10 µM [1] [%] | viability at 48 h, 100 µM [1] [%] | IC50 at 48 h [1] [µM] | viability at 48 h, 0.01 µM [2] [%] | viability at 48 h, 0.1 µM [2] [%] | viability at 48 h, 1 µM [2] [%] | viability at 48 h, 10 µM [2] [%] | viability at 48 h, 100 µM [2] [%] | IC50 at 48 h [2, 4] [µM] | inhibition at 1 µM [3, 5] [%] | IC50 at 48 h ([2]; text of b533, read-out: cytotoxicity IC50 for HT-29) [µM] | inhibition at 1 µM ([3]; 1 μM, Table 8, read-out: 1 μM concentration inhibitory activity) [%]
– | Cc1nc(NC(=O)OCCCl)c(C)c(C)c1O [Compound 20-4, 2-Chloroethyl (5-hydroxy-3,4,6-trimethylpyridin-2-yl)carbamate] | 86.1 ± 3.1 | 82.7 ± 1 | 83.4 ± 1.3 | 83 ± 0.5 | 79.2 ± 1.3 | > 100 | 97.4 ± 2.2 | 94.7 ± 3.3 | 88.6 ± 2.2 | 90.2 ± 5.3 | 86.7 ± 3.1 | > 100 | -1.5 | – | –
– | CCCCNC(=S)Nc1nc(C)c(O)c(C)c1C [Compound 18-1, 1-butyl-3-(5-hydroxy-3,4,6-trimethylpyridin-2-yl)thiourea] | 95.4 ± 0.6 | 94.9 ± 1.2 | 92.9 ± 0.6 | 91 ± 0.9 | 55 ± 1.1 | > 100 | 93.5 ± 3.4 | 95.2 ± 1.7 | 96.9 ± 1.4 | 96.5 ± 2.3 | 60.3 ± 0.5 | > 100 | -19.9 | – | –
– | Cc1nc(NC(=S)Nc2ccccc2)c(C)c(C)c1O [Compound 18-4, 1-(5-hydroxy-3,4,6-trimethylpyridin-2-yl)-3-phenylthiourea] | 99.5 ± 2.1 | 101 ± 1.9 | 96.7 ± 1.7 | 96.1 ± 1.4 | 70.6 ± 0.8 | > 100 | 96.6 ± 2.1 | 97 ± 4.4 | 99 ± 5 | 96.6 ± 2.4 | 76 ± 4.9 | > 100 | 49.7 | – | –
– | Cc1nc(NC(=O)NS(=O)(=O)c2ccccc2)c(C)c(C)c1O [Compound 16-6, N-((5-hydroxy-3,4,6-trimethylpyridin-2-yl)carbamoyl)benzenesulfonamide] | 91.6 ± 2.6 | 94.3 ± 2.6 | 85.8 ± 2.7 | 83.5 ± 1.1 | 84.9 ± 2 | > 100 | 90 ± 3.5 | 85.4 ± 0.9 | 76 ± 7.2 | 77.9 ± 3.5 | 53.6 ± 2.5 | > 100 | 17.5 | – | –
– | Cc1nc(NS(C)(=O)=O)c(C)c(C)c1O [Compound 22-1, N-(5-hydroxy-3,4,6-trimethylpyridin-2-yl)methanesulfonamide] | 97.6 ± 5 | 94.8 ± 3.8 | 95.7 ± 2.4 | 94.4 ± 0.4 | 94.4 ± 2.5 | > 100 | 87.6 ± 3.3 | 75.7 ± 8.2 | 76.1 ± 3.6 | 63.5 ± 1.8 | 43 ± 1.9 | 50.1 | 18.7 | – | –
– | CCCNC(=O)Nc1nc(C)c(O)c(C)c1C [Compound 16-1, 1-(5-hydroxy-3,4,6-trimethylpyridin-2-yl)-3-propylurea] | 89.1 ± 3.5 | 88.4 ± 3.5 | 90 ± 4.8 | 75.2 ± 0.9 | 44.2 ± 0.7 | 15.4 | 94.9 ± 6.5 | 84.4 ± 7.6 | 84.4 ± 4.2 | 70.9 ± 6.2 | 42.8 ± 2.7 | – | 18.2 | 64.6 | –
0.23 | Cc1nc(NS(=O)(=O)c2cccc3ccccc23)c(C)c(C)c1O [Compound 22-5, N-(5-hydroxy-3,4,6-trimethylpyridin-2-yl)naphthalene-1-sulfonamide] | 102 ± 5.4 | 93.4 ± 1.2 | 92.6 ± 0.9 | 85.1 ± 3.1 | 62.5 ± 2 | > 100 | 95.2 ± 3.3 | 86.7 ± 6.5 | 87.8 ± 3.2 | 89.1 ± 3.5 | 88.8 ± 1.2 | > 100 | – | – | 80.6
– | Cc1nc(NC(=O)Nc2ccc(Cl)cc2)c(C)c(C)c1O [Compound 16-3, 1-(4-Chlorophenyl)-3-(5-hydroxy-3,4,6-trimethylpyridin-2-yl)urea] | 89.4 ± 2.7 | 89.7 ± 3.1 | 81 ± 3.1 | 81 ± 2.2 | 66 ± 0.1 | > 100 | 104 ± 6.1 | 102 ± 6.4 | 103 ± 11.1 | 89.3 ± 4.8 | 69.2 ± 6.1 | > 100 | 7.7 | – | –
– | Cc1nc(NC(=S)Nc2ccc(Cl)cc2)c(C)c(C)c1O [Compound 18-6, 1-(4-chlorophenyl)-3-(5-hydroxy-3,4,6-trimethylpyridin-2-yl)thiourea] | 99.6 ± 0.5 | 96.8 ± 1.9 | 91.6 ± 2.6 | 86.4 ± 1.7 | 80.7 ± 2.5 | > 100 | 95.2 ± 3.2 | 86.6 ± 4.9 | 83.6 ± 3.3 | 72.8 ± 2.8 | 65.3 ± 1.9 | > 100 | ≥ 50 | – | –
– | COCCOC(=O)Nc1nc(C)c(O)c(C)c1C [Compound 20-5, 2-methoxyethyl (5-hydroxy-3,4,6-trimethylpyridin-2-yl)carbamate] | 85.4 ± 4.4 | 84.2 ± 4.1 | 81.2 ± 0.7 | 79.9 ± 0.8 | 77.9 ± 0.8 | > 100 | 89.7 ± 1.2 | 83.2 ± 2.6 | 84.7 ± 1.6 | 85.5 ± 3.3 | 82.3 ± 1.1 | > 100 | -22.5 | – | –
– | Cc1nc(NC(=O)OCC(C)C)c(C)c(C)c1O [Compound 20-3, isobutyl (5-hydroxy-3,4,6-trimethylpyridin-2-yl)carbamate] | 86.3 ± 0.4 | 86.3 ± 0.9 | 80.9 ± 2.1 | 82.2 ± 0.5 | 72.5 ± 1.9 | > 100 | 101 ± 1.9 | 91 ± 3.6 | 93.3 ± 4.7 | 83.7 ± 3.3 | 71.2 ± 3.4 | > 100 | 6 | – | –
– | Cc1nc(NC(=O)Nc2cccc3ccccc23)c(C)c(C)c1O [Compound 16-5, 1-(5-hydroxy-3,4,6-trimethylpyridin-2-yl)-3-(naphthalen-1-yl)urea] | 88.1 ± 1.9 | 85.4 ± 6.4 | 90.9 ± 1.2 | 88.5 ± 2.8 | 79.6 ± 2.7 | > 100 | 105 ± 1.1 | 94.3 ± 2.1 | 78.6 ± 10.1 | 73.4 ± 5.6 | 76.7 ± 1.1 | > 100 | 20.2 | – | –
